Literature values, collected in patent publication US20190008969A1, “COMPOSITIONS FOR DRUG DELIVERY” (Tioga Research, Inc., priority 2017, published 2019).

Details: spray format at 0.25 wt %

## C[C@@H]1C[C@H]2[C@@H]3CCC4=CC(=O)C=C[C@]4(C)[C@@]3(F)[C@@H](O)C[C@]2(C)[C@H]1C(=O)CO [desoximetasone, (8S,9S,10S,11S,13S,14S,16R,17S)-9-fluoro-11-hydroxy-17-(2-hydroxyacetyl)-10,13,16-trirmethyl-7,8,11,12,14,15,16,17-octahydro-6H-cyclopenta[a]phenanthren-3-one]
  Efficacy in treating psoriasis: efficacious
  Safety in treating psoriasis: safe
